We go through 75 compounds from PubChem BioAssay AID179 (DTP/NCI, 2004).

Broadly, the pEC50 is the negative decadic logarithm of the EC50, by convention in mol/L. The term pIC50 denotes the IC50 on a negative log10 scale, so that one unit is a factor of ten. A low value points to a large IC50.

For the assay, the system named is CEM cells HIV-1 protection, formazan growth assay. The experiment in a line: NCI AIDS Antiviral Assay. Particulars: for pIC50: measured here: growth of uninfected CEM cells. Put shortly:
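Soluble formazan readout of cell growth; CEM cells ± HIV-1; 5 drug concs. ≥50% protection → retest; ≥50% again = moderately active; reproducible 100% = confirmed active.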

pEC50, pIC50: −log10 of the molar value. Active and inactive are the calls of the source.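 How the source made its calls: active means compounds giving half or more protection of infected cells from virus-caused growth loss, again on retest; inactive means the rest.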

As for `COc1ccc2nc(NC(=O)C(=O)CC(=O)c3ccc([N+](=O)[O-])cc3)sc2c1`, the outcome was inactive. With `CC1CCC(C(C)C)C(O[C@@H]2OC(=O)C[C@@H]2Sc2ccccc2)C1` (some centres undefined), the outcome was inactive.

In the case of `CSc1ncc2c(n1)sc1c(=O)n(-c3ccccc3)cnc12`, the pEC50 is less than 3.70 and the pIC50 is less than 3.70. Take `BrC1(Br)C2/C=C\CCCCC21` (centres undefined): the result was inactive.

For the compound `CCOC(=O)c1sc(N/N=C2\NC(=O)/C(=C/c3ccc([N+](=O)[O-])cc3)S2)nc1C`, the pEC50 was less than 3.70 and the pIC50 was 3.87. On to `Cc1cc(NS(=O)(=O)c2ccc(N=Nc3c(N)n(C)c(=O)n(C)c3=O)cc2)nc(C)n1`, for which the pEC50 is less than 3.70 and the pIC50 is less than 3.70. Compound `O=C(CCCC[n+]1ccccc1)Sc1ccccc1C(=O)NCc1ccc2c(c1)OCO2` had a pEC50 of less than 3.70 and a pIC50 of 5.52. For the compound `c1ccc(-c2csc3n4ccccc4c[n+]23)cc1`, the result was inactive. For `CCn1c(CSc2nc(-c3ccccc3)c(-c3ccccc3)[nH]2)n[nH]c1=S`, the pEC50 is less than 4.04 and the pIC50 was 4.28. `CSc1nc2c(c(N(C)C)n1)C(O)n1c(nc3ccccc31)S2` (centres undefined): the pEC50 was less than 3.70 and the pIC50 was less than 3.70.

Take `C/C(O)=C(\C=N\C(N)=S)C(=O)Nc1ccccc1`: the pEC50 is less than 3.70 and the pIC50 was less than 3.70. In the case of `Nc1nc(Cl)c(C=O)c(NCC2(CO)CCC2)n1`, the pEC50 was less than 3.70 and the pIC50 was 5.54.

With `Cc1cc(=O)c2c3c(ccc2[nH]1)Oc1ccccc1O3`, the pEC50 is less than 5.12 and the pIC50 is less than 5.12. `COC(=O)[C@H](Cc1ccccc1)NP(=O)(OCCC#N)OCC1OC(n2cc(C)c(=O)[nH]c2=O)CC1N=[N+]=[N-]` (some centres undefined): the pEC50 was 6.29 and the negative-log IC50 (pIC50) is less than 3.70. Consider `CC(=O)OC1C=CN(C(C)=O)C(SC(C)(C)C)C1(C)O` (centres undefined), for which the pEC50 was less than 3.70 and the pIC50 is less than 3.70. As for `O=S(=O)(c1ccccc1)C1CC(c2nc3ccccc3[nH]2)=NO1` (centres undefined), the pEC50 is less than 3.70 and the negative logarithm of the IC50 (pIC50) was 3.88. On to `O=C(O)C(CS)Nc1c2ccccc2nc2ccccc12` (centres undefined), for which the outcome was inactive.

Turning to `O=C(Nc1ccc(Cl)cc1)NS(=O)(=O)c1c(-c2ccccc2)oc2ccccc2c1=O`, the result was inactive. In the case of `CCN1CCCc2cc3c(C(F)(F)F)cc(=O)oc3cc21`, the pEC50 was less than 4.76 and the pIC50 is less than 4.76. `Cc1cc(-c2ccccc2)nc(Nc2cc3ccccc3[nH]2)n1`: the pEC50 was less than 3.22 and the pIC50 is less than 3.22. Take `O=c1onc2n1-c1ccc(Cl)cc1C(=S)N1CSCC21` (centres undefined): the pEC50 was less than 3.70 and the pIC50 is 4.49. Take `O=C(NC(Cc1c[nH]c2ccccc12)C(=O)O)/C(=C/c1ccccc1O)NC(=O)c1ccccc1` (centres undefined): the pEC50 is less than 3.70 and the pIC50 is less than 3.70. As for `CC1C2=C(CCCC2=O)N(c2ccc(Cl)cc2)C2=C1C(=O)CCC2`, the pEC50 is less than 4.00 and the pIC50 is less than 4.00.

For `O=C(CC(C(=O)c1cccs1)c1ccsc1)c1ccc(Cl)s1` (centres undefined), the pEC50 is less than 3.70 and the negative logarithm of the IC50 (pIC50) was 4.01. In the case of `O=Nc1ccccc1N=O`, the result was inactive. Turning to `CS(=O)(=O)c1nc(Cl)c(Cl)c(C#N)c1Cl`, the pEC50 was less than 3.70 and the pIC50 was 6.34.

Regarding `COc1ccc(-c2oc3c(CC(=O)O)cccc3c(=O)c2OC)cc1`, the pEC50 was less than 3.70 and the negative-log IC50 (pIC50) is 3.95. For `C/C(CC1SCCCS1)=C(/C)CC1SCCCS1`, the pEC50 was less than 3.70 and the pIC50 is less than 3.70. As for `O=C(O)c1nc2ccccc2n2cccc12`, the pEC50 is less than 3.70 and the pIC50 was less than 3.70. For the compound `COC(=O)Cc1cc(O)c(C/C=C(\C)CC/C=C(\C)C(O)C(=O)C=C(C)C)cc1O` (centres undefined), the pEC50 was less than 4.80 and the pIC50 was 5.03. `Cc1cc2c(cc1Cl)S(=O)(=O)OC(c1ccc([N+](=O)[O-])cc1)=N2`: the pEC50 was less than 3.70 and the pIC50 is 3.94. Turning to `Nc1[nH]c(=O)[nH]c(=O)c1N=O`, the pEC50 was less than 3.70 and the pIC50 was less than 3.70. In the case of `CCOc1cc2c(c(OCC)c1O)CC[C@@H]1[C@@H]2CC[C@]2(C)[C@@H](O)CC[C@@H]12`, the pEC50 is less than 5.70 and the pIC50 is 6.11. Taken in the same sequence, the figures for `Cn1cc(S(=O)(=O)NC(=O)Nc2ccc(Cl)cc2)c(=O)c2ccc(Cl)cc21` were less than 3.70 and 4.44. Take `CC1(C)C(=NNC(=O)C[N+](C)(C)C)C(C)(C)C1=NNC(=O)C[N+](C)(C)C`: the pEC50 was less than 4.54 and the negative-log IC50 (pIC50) is less than 4.54. For `Nc1ncnc2ccc(Sc3ccc4ncnc(N)c4c3)cc12`, the pEC50 is less than 4.00 and the pIC50 was less than 4.00. For the compound `CCn1c(=O)c(N=O)c(N)n(CCO)c1=O`, the pEC50 was less than 3.70 and the pIC50 was less than 3.70. On to `CN(C)C(=O)C(NCCO)c1ccccc1` (centres undefined), for which the pEC50 was less than 3.70 and the pIC50 was 4.13. On to `Brc1cccc(C=NC23CC4CC(CC(C4)C2)C3)c1`, for which the pEC50 was less than 4.79 and the pIC50 was less than 4.79. With `O=CC1CCCc2ccccc21` (centres undefined), the pEC50 was less than 4.35 and the pIC50 was less than 4.35. Turning to `Cc1cc2c(cc1Br)C1(C)CCC(C)C1(C)O2` (centres undefined), the pEC50 is less than 4.30 and the pIC50 was less than 4.30. For the compound `COC(=O)C1([Se]c2ccccc2)CCN2CCC(OCc3ccccc3[N+](=O)[O-])C21` (centres undefined), the pEC50 is less than 3.70 and the pIC50 is less than 3.70. For the compound `CN(C)CC(C)(C)/C(=N\Nc1ccccc1)c1ccccc1`, the outcome was inactive.

In the case of `CN1C(=S)CSc2ccccc21`, the pEC50 is less than 3.74 and the pIC50 is less than 3.74. For the compound `O=[N+]([O-])/C=C/c1cn(CCCCCn2cc(/C=C/[N+](=O)[O-])c3ccccc32)c2ccccc12`, the pEC50 is less than 3.70 and the pIC50 is 5.58. For the compound `COc1cc2nn(-c3ccccc3)nc2c2nonc12`, the pEC50 was less than 3.70 and the pIC50 was less than 3.70. Consider `CCc1c(O)nc(Nc2nc3ccccc3[nH]2)[nH]c1=O`, for which the pEC50 was less than 3.70 and the pIC50 is less than 3.70.

As to `CC(=O)NCCC1CN(C(=O)/C=C/I)c2ccccc21` (centres undefined), the pEC50 was less than 3.70 and the negative-log IC50 (pIC50) was 5.96.

With `CC(C)(C)C(=O)N1C(C(=O)O)Cc2ccccc2[C@@H]1Cc1ccccc1` (some centres undefined), the pEC50 was less than 4.13 and the pIC50 is less than 4.13. In the case of `C/C=C(/C1CC(=O)N2CCc3c([nH]c4ccccc34)C2C1)[Si](C)(C)C` (centres undefined), the pEC50 was less than 4.97 and the pIC50 was less than 4.97.

In the case of `O=[N+]([O-])c1cccc(C2ON2C2CCCCC2)c1` (centres undefined), the pEC50 was less than 4.05 and the negative logarithm of the IC50 (pIC50) was 5.30. As for `O=C1C2Cc3ccccc3CN2C(=O)N1CN1CCN(CN2C(=O)C3Cc4ccccc4CN3C2=O)CC1` (centres undefined), the pEC50 was less than 5.00 and the negative-log IC50 (pIC50) was less than 5.00. On to `C[N+](C)(C)CC1CCc2ccccc2C1=O` (centres undefined), for which the pEC50 was less than 3.14 and the pIC50 was 5.88.

Consider `Cc1ccc(S(=O)(=O)NC(CCC(=O)NN)C(=O)NN)cc1` (centres undefined), for which the pEC50 was less than 3.70 and the pIC50 was less than 3.70. Take `N#CC(C#N)=C1CCN2CCCc3cccc1c32`: the pEC50 was less than 3.70 and the pIC50 is 3.89. `Cc1ccc(C)c(N2C(=O)C(=O)C(c3nc4ccccc4s3)C(=Nc3cccc4c(=O)[nH][nH]c(=O)c34)C2=O)c1` (centres undefined): the result was inactive. Consider `Brc1ccc(N=Nc2ccc3ccccc3n2)cc1`, for which the pEC50 was less than 4.03 and the negative-log IC50 (pIC50) is 4.04. For the compound `O=C(CCN1CCCCC1)c1cc2cc([N+](=O)[O-])ccc2oc1=O`, the pEC50 is less than 3.66 and the pIC50 is 3.95. Taken in the same sequence, the figures for `COc1ccc2nc3cccc([N+](=O)[O-])c3c(NCCCCCC(=O)O)c2c1` were less than 5.70 and 6.52.

As for `O=C(Nc1ccccc1)O/N=C1/CCCC/C1=C\c1ccccc1`, the pEC50 is less than 4.37 and the pIC50 is 4.40.

Take `C=C1CCC([N+](=O)[O-])[C@](C)(N=O)CC[C@@H]2C1CC2(C)C` (some centres undefined): the pEC50 is less than 3.70 and the negative logarithm of the IC50 (pIC50) was 4.77. As to `COc1cc(/C=C/C(=O)c2sc(-n3nc(-c4ccccc4)cc3-c3ccccc3)nc2C)ccc1O`, the pEC50 is less than 4.84 and the pIC50 is less than 4.84.

For the compound `O/N=C/c1cc(I)cc(I)c1O`, the pEC50 is less than 4.18 and the pIC50 was 4.47. Turning to `CC1=C(C)C(=O)C(C2=C(C3=CC(=O)C(C)=C(C)C3=O)C(=O)C(C)=C(C)C2=O)=CC1=O`, the pEC50 is less than 4.70 and the pIC50 was 5.99. On to `CN(C)CCNC(=O)c1cccc2c(NCCN(C)C)c3ccccc3nc12`, for which the pEC50 is less than 4.70 and the pIC50 was 5.68.

As for `COC(=O)C1(Cc2ccccc2)Cc2ccccc2C1=O` (centres undefined), the pEC50 is less than 3.70 and the pIC50 was 4.07. As for `N.N.N.N.N.O=C([O-])c1nn[n-]n1.[Cl-].[Co+3]`, the pEC50 is less than 4.79 and the pIC50 was less than 4.79. Consider `CCOc1ncn(-c2ccc(NC(=S)Nc3ncccn3)cc2)n1`, for which the pEC50 is less than 3.70 and the pIC50 was 4.02. `O=C(CC(=O)n1nc(-c2ccccc2)c(N=Nc2ccc(Cl)cc2)c1-c1ccccc1)Nc1cccc(Cl)c1`: the pEC50 was less than 3.70 and the pIC50 was 4.09. In the case of `CC(C)C(=O)OCN(C)c1nc(N(C)COC(=O)C(C)C)nc(N(C)COC(=O)C(C)C)n1`, the pEC50 was less than 3.70 and the pIC50 was 4.73. Regarding `COc1ccc(N/C=C/C2=[N+](C)c3ccccc3C2(C)C)c(OC)c1`, the pEC50 was less than 3.32 and the pIC50 is 4.41. As to `OC1CCC[C@@H]1Sc1ccccc1` (some centres undefined), the outcome was inactive. Same read-out and setting: the result for `BrN1C2c3ccccc3C1c1ccccc12` reads “inactive”. As for `CN(C)c1ccc2nc(CC(O)(C(F)(F)F)C(F)(F)F)ccc2c1`, the pEC50 was less than 3.70 and the pIC50 was less than 3.70. On to `Cc1c(-c2coc(-c3ccccc3)n2)c(=O)n(-c2ccccc2)n1C`, for which the pEC50 was less than 3.97 and the pIC50 was less than 3.97.
